The values below come from ChEMBL document CHEMBL4130349, “Discovery and structure-activity relationship studies of 2-benzylidene-2,3-dihydro-1H-inden-1-one and benzofuran-3(2H)-one derivatives as a novel class of potential therapeutics for inflammatory bowel disease” (Eur J Med Chem, 2017).

Experiment [1] has as its system Rattus norvegicus. Put plainly: Antiinflammatory activity in TNBS-induced Sprague-Dawley rat colitis model assessed as recovery in body weight decrease at 300 mg/kg, po qd administered for 5 days measured on day 6. It counts as functional, organism-based.
For experiment [2], the system named is Rattus norvegicus. Put plainly: Antiinflammatory activity in TNBS-induced Sprague-Dawley rat colitis model assessed as recovery of colon tissue edematous inflammation at 300 mg/kg, po qd administered for 5 days measured on day 6. It counts as functional, organism-based.
Experiment [3] has as its system HT-29. As to the kind of experiment: Inhibition of TNF-alpha-induced ROS production in human HT-29 cells at 100 uM preincubated for 1 hr followed by TNF-alpha challenge measured after 30 mins by DCF-DA dye-based fluorescence microscopy. It counts as functional, cell-based.
The subject of experiment [4] is HT-29. As to the kind of experiment: Inhibition of LPS-induced TNF-alpha expression in human HT-29 cells at 10 uM preincubated for 1 hr followed by TNF-alpha challenge measured after 3 hrs by Western blot method. It counts as functional, cell-based. For orientation: Immunoblotting shows a protein as a band on a membrane.
Experiment [5] relates to HT-29. As to the kind of experiment: Inhibition of TNF-alpha-induced AP-1 transcriptional activity in human HT-29 cells at 10 uM preincubated for 1 hr followed by TNF-alpha challenge measured after 3 hrs by dual luciferase reporter gene assay. It counts as functional, cell-based. In general terms: In a reporter assay the amount or activity of a reporter protein is the signal.

Experiment [6] has as its system HT-29. Put plainly: Inhibition of TNF-alpha-induced adhesion of BCECF-labeled human U937 cells to human HT-29 cells preincubated for 1 hr followed by TNF-alpha challenge measured after 3 hrs by fluorescence microscopic method. Format: functional, cell-based.
Experiment [7] relates to HT-29. Put plainly: Inhibition of TNF-alpha-induced MCP-1 expression in human HT-29 cells preincubated for 1 hr followed by TNF-alpha challenge measured after 3 hrs by Western blot analysis. Format: functional, cell-based.
Experiment [8] concerns Rattus norvegicus. As to the kind of experiment: Antiinflammatory activity in po dosed TNBS-induced Sprague-Dawley rat colitis model assessed as recovery in body weight decrease administered once a day for 5 days measured on day 6. Format: functional, organism-based.
Experiment [9] relates to HT-29. Put plainly: Inhibition of TNF-alpha-induced NFkappa-B transcriptional activity in human HT-29 cells at 10 uM preincubated for 1 hr followed by TNF-alpha challenge measured after 3 hrs by dual luciferase reporter gene assay. It counts as functional, cell-based.
The subject of experiment [10] is HT-29. As to the kind of experiment: Inhibition of TNF-alpha-induced ROS production in human HT-29 cells preincubated for 1 hr followed by TNF-alpha challenge measured after 30 mins by DCF-DA dye-based fluorescence microscopy. It counts as functional, cell-based.
Experiment [11] deals with HT-29. Put plainly: Inhibition of TNF-alpha-induced ICAM-1 expression in human HT-29 cells preincubated for 1 hr followed by TNF-alpha challenge measured after 3 hrs by Western blot analysis. It counts as functional, cell-based.
Experiment [12] deals with HT-29. As to the kind of experiment: Potency index, ratio of 5-ASA IC50 to test compound IC50 for inhibition of TNF-alpha-induced adhesion of BCECF-labeled human U937 cells to human HT-29 cells. Format: functional.
Experiment [13] concerns HT-29. As to the kind of experiment: Inhibition of TNF-alpha-induced adhesion of BCECF-labeled human U937 cells to human HT-29 cells at 10 uM preincubated for 1 hr followed by TNF-alpha challenge measured after 3 hrs by fluorescence microscopic method relative to control. It counts as functional.
The test system of experiment [14] is HT-29. Put plainly: Inhibition of LPS-induced TNF-alpha expression in human HT-29 cells preincubated for 1 hr followed by TNF-alpha challenge measured after 3 hrs by Western blot method. It counts as functional, cell-based.
The test system of experiment [15] is Rattus norvegicus. Put plainly: Antiinflammatory activity in po dosed TNBS-induced Sprague-Dawley rat colitis model assessed as decrease in MPO levels in colon tissue administered once per day for 5 days measured on day 6. It counts as functional, organism-based.
Experiment [16] relates to Rattus norvegicus. Put plainly: Antiinflammatory activity in po dosed TNBS-induced Sprague-Dawley rat colitis model assessed as recovery of colon tissue edematous inflammation administered once a day for 5 days measured on day 6. It counts as functional, organism-based.
Experiment [17] deals with HT-29. As to the kind of experiment: Inhibition of TNF-alpha-induced ICAM-1 expression in human HT-29 cells at 10 uM preincubated for 1 hr followed by TNF-alpha challenge measured after 3 hrs by Western blot analysis. Format: functional, cell-based.
For experiment [18], the system named is HT-29. Put plainly: Inhibition of TNF-alpha-induced MCP-1 expression in human HT-29 cells at 10 uM preincubated for 1 hr followed by TNF-alpha challenge measured after 3 hrs by Western blot analysis. Format: functional, cell-based.
For experiment [19], the system named is HT-29. As to the kind of experiment: Inhibition of TNF-alpha-induced ROS production in human HT-29 cells at 10 uM preincubated for 1 hr followed by TNF-alpha challenge measured after 30 mins by DCF-DA dye-based fluorescence microscopy. It counts as functional, cell-based.
In experiment [20] the test system is HT-29. As to the kind of experiment: Inhibition of TNF-alpha-induced adhesion of BCECF-labeled human U937 cells to human HT-29 cells at […] preincubated for 1 hr followed by TNF-alpha challenge measured after 3 hrs by fluorescence microscopic method relative to control. It counts as functional.
Experiment [21] concerns HT-29. As to the kind of experiment: Inhibition of LPS-induced TNF-alpha expression in human HT-29 cells at […] preincubated for 1 hr followed by TNF-alpha challenge measured after 3 hrs by Western blot method. It counts as functional, cell-based.

Activity calls are given as the source filed them. No cut-off for these calls is given here.

The term inhibition denotes the relative decrease from the control value, in per cent. Take `O=C(O)c1cc(/N=N/c2ccc(S(=O)(=O)Nc3ccccn3)cc2)ccc1O`: the inhibition entry in the experiment with Rattus norvegicus [1] and in the experiment on Rattus norvegicus [2] was “Active” throughout.

As to `COc1cc(C(C)=O)ccc1O`, in the experiment with HT-29 [3], the inhibition entry is “Active”.

Usually IC50 stands for the point on the concentration scale where inhibition reaches its midpoint. For `O=C1/C(=C/c2ccc(O)cc2)Oc2cc(O)ccc21`, the inhibition entry in the experiment with HT-29 [4], with HT-29 [5], in the experiment with HT-29 [9] and in the experiment with HT-29 [10] was “Active” throughout. In the experiment with HT-29 [6], this molecule returned an IC50 of 0.5 µM. For the same molecule, the inhibition entry with HT-29 [6], in the experiment on HT-29 [7], with HT-29 [11], with HT-29 [14] and in the experiment on Rattus norvegicus [15] was “Dose-dependent effect” each time. Also, the Activity result in the experiment on Rattus norvegicus [8] and with Rattus norvegicus [16] was “Dose-dependent effect” throughout. For the same molecule, in the experiment with HT-29 [12], the “Ratio IC50” value came to 40000. Moreover, the inhibition at 10 µM in the experiment with HT-29 [13] worked out at 80.3%.

Regarding `O=C1/C(=C/c2ccc(O)cc2)Cc2ccc(O)cc21`, the inhibition result in the experiment on HT-29 [4], with HT-29 [5], with HT-29 [9], in the experiment on HT-29 [17], in the experiment on HT-29 [18] and in the experiment on HT-29 [19] was “Active” in each case. In addition, half-maximal inhibition in the experiment with HT-29 [6] (IC50) required 0.83 µM. In addition, in the experiment on HT-29 [13], at 10 µM the inhibition was 80.3%.

`Nc1ccc(O)c(C(=O)O)c1` [MESALAMINE]: the inhibition result in the experiment on HT-29 [4] is “inactive”. Further, in the experiment with HT-29 [6], the IC50 was 20400 µM. In the experiment on HT-29 [20], this molecule registered an inhibition of 52.8%. Moreover, in the experiment on HT-29 [21], the inhibition result is “Active”. Besides, testing at 10 µM in the experiment on HT-29 [13] gave an inhibition of 3.7%.
